# Test results reported in patent US9725417B2, “Cdc42 inhibitor and uses thereof” (priority 2011, dated 2017).
# Legend:
# PC-3 cells [1] = assay: Wound healing (migration) assay in PC-3 cells; format: cell-based, human; settings: 24 hours; for wound closure: control 41%
# Method: Filopodia are dynamic structures that aid cells in pathfinding and migration, and are largely controlled by Cdc42 activity. Using a metastatic line of human prostate cancer cells (PC-3), a wound healing assay was used in order to elucidate the effects of ZCL278 on cellular migration. 1 unit/ml Cdc42 activator; 50 uM or 5 uM of ZCL278; and 10 uM […] respectively, were used to treat cells for 24 hours, with Cdc42 activator as positive control, and no treatment as negative control. Cells were photographed at 0 and 24 hours following drug treatments and MetaMorph software was used to determine the distances cells had migrated. Black line indicates the boundary of wounded area. Each experiment was tested with p value (p<0.05).
# The experiment was repeated three times and the means were obtained:**; p<0.01,*:p<0.05. Wound closure was less pronounced at 50 μM (8%) than 5 μM (30%) concentrations.
# GTP-bound (active) Cdc42 = biological target: T1, GTP-bound (active) Cdc42 (Mus musculus, UniProt P60766); assay: G-LISA of GTP-bound (active) Cdc42 in Swiss 3T3 lysates; format: cell-based; settings: then 1 unit/mL Cdc42 activator 2 minutes
# T1 construct: endogenous in cells; host or cells: Swiss 3T3 fibroblasts (mouse)
# T1 sequence (P60766 whole entry): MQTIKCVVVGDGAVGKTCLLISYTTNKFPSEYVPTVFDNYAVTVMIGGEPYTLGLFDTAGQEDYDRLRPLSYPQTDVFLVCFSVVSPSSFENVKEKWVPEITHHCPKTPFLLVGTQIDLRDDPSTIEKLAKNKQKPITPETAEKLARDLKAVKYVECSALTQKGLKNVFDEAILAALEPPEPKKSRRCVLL
# Method: Serine 71 phosphorylation can occur on both Rac and Cdc42. To directly assess specific Cdc42 activation and inactivation, a G-LISA, an ELISA-based assay that allows a quantitative determination of the levels of GTP-bound (active) Cdc42 in cellular lysates was utilized. Serum-starved Swiss 3T3 fibroblasts were incubated for 1 hour with 50 μM ZCL278 or 10 μM NSC23766 (Rac inhibitor), followed by 2 minutes of stimulation with 1 unit/mL Cdc42 activator.
# Finally, the ability of NSC23766 to cross-inhibit Cdc42 activation was analyzed. NSC23766 was developed in a similar manner as ZCL278; however, it is specific to Rac and should therefore act as an additional negative control in this assay.
# G-LiSA kit: Swiss 3T3 cells were cultured to 40% of the growth density, then removed serum and cultured for 48 hours, treated with Cdc42 agonist for 1 minute, and treated with the 50 uM ZCL278 and 10 uM NSC23766. Cell lysis proteins were extracted according to kit instructions, and analysis of the quantification of total protein concentration to be 0.15 mg/ml. Untreated cells or cells treated with buffer were used as negative control while the agonist treated cells and active Cdc42 protein were used as a positive control. Enzyme linked immunosorbent assay measured the absorbance value of each sample 490 nm light wave.
# active Cdc42 = assay: Immunofluorescence staining of active Cdc42 in Swiss 3T3 cells; format: cell-based, mouse; settings: 50 uM ZCL278 or 10 uM NSC23766, Cdc42 agonist 1 unit/ml
# Method: (§1) Immunofluorescent staining: Swiss3T3 cells were grown on coverslips to 30% confluence. In serum-deprived culture, cells were treated with 10 uM NSC23766 or 50 uM ZCL278 for 1 hour followed by 1 unit/mL Cdc42 agonists (Cytoskeleton Products) treatment for 1 minute. Added agonist alone was used as a positive control while DMSO was used as a negative control. Cells on the coverslips were fixed in 4% paraformaldehyde for 15 minutes, and in 0.2% Triton X-100 for permeabilization for 15 minutes and then blocked in 10% BSA for 30 minutes.
# (§2) Incubation with antibodies: anti-active Cdc42 (mouse antibody, Neweast Biosciences); phosphorylated RhoA antibody (rabbit antibody, Santa Cruz Biotechnology Company); GM130 antibody (mouse antibody, BD Biosciences Company). The next step was to apply corresponding secondary antibody. Rhodamine, Phalloidin was incubated for 1 hour at room temperature to observe filamentous actin under the Zeiss Axiovert fluorescent light microscopy of cells staining. Image processing software MetaMorph-5 was used to randomly select cells in randomly selected five-point pixels to obtain the average number of each group for pixel intensity values.
# (§3) Determination of selective inhibition of Cdc42 activation by ZCL278 at the cellular level. […] FIG. 3C: Pixel intensity of phospho-RhoA in cells after treatments with Activator, ZCL278, or NSC23766 was quantified. […]
# phosphorylated RhoA = assay: Immunofluorescence staining of phosphorylated RhoA in Swiss 3T3 cells; format: cell-based, mouse; settings: 50 uM ZCL278, 10 uM NSC23766 or 1 unit/ml Cdc42 agonist
# Method: as §1, §2, §3
# GM130 = assay: GM130-docked Golgi organization in Swiss 3T3 cells; format: cell-based, mouse; settings: 50 uM ZCL278 or 10 uM NSC23766, Swiss 3T3
# Method: as §1
# as §2, with “values. […]” for “values.”
# PC-3 cells [2] = assay: Trypan blue dye exclusion cell viability in PC-3 cells; format: cell-based; settings: 50 μM ZCL278 or 10 μM NSC23766, 24 hours, PC-3, trypan blue
# Method: Examination of cell survival: PC3 cells were plated at 75000/ml for 48 hours, serum was removed and 50 uM ZCL278 or 10 uM NSC23766 was added, and then continue to culture for 24 hours before staining with trypan blue to determine cell survival rate.
# In order to ensure that decreases in cellular migration seen with ZCL278 treatment was due to Cdc42 inhibition (or Rae inhibition when treated with NSC23766) rather than cell death, cell viability was tested using the trypan blue dye exclusion assay. PC-3 cells were arrested in G0, and then 50 μM ZCL278 or 10 μM NSC23766 was applied for 24 hours. […] Therefore, the differences seen in migratory ability is due to ZCL278-mediated Cdc42 inhibition or NSC23766-mediated Rac inhibition and not cell death.
# [3] = tested on: Cdc42-mediated microspike/filopodia formation in Swiss 3T3 fibroblasts; assay: Cdc42-mediated microspike/filopodia formation in serum-starved Swiss 3T3 fibroblasts; format: cell-based, mouse; settings: 50 μM for 1 hour, then Cdc42 activator 2 minutes
# Method: 30 selected ZCL compounds were assessed for their ability to inhibit Cdc42-mediated microspike/filopodia formation in serum-starved Swiss 3T3 fibroblasts. Actin-based microspikes/filopodia are characteristic of Cdc42 activity in cultured fibroblastic cells. […] When arrested fibroblasts were briefly stimulated with 1 unit/mL of a commercial Cdc42 activator, a dramatic increase in microspike number and decrease in stress fibers occurred (FIG. 2A, Activator). Compound ZCL278 was applied at 50 μM for 1 hour and then stimulated with the Cdc42 activator for 2 minute. The cell periphery of ZCL278-treated cells resembles control cells with few microspikes (FIG. 2A, ZCL278).
# phospho-WASP = assay: Western blot of phospho-WASP in PC-3 cells; format: cell-based, human; settings: 50 μM, up to 15 minutes
# Method: Wiskott-Aldrich syndrome Protein WASP) is a downstream effector of Cdc42 activation. Tyrosine phosphorylation WASP is linked to rapid Cdc42 degradation following its activation. […] Thus, ZCL278 inhibits Rac/Cdc42 phosphorylation in a time-dependent manner and maintains tyrosine phosphorylation of WASP.
# (§4) The Western blot: PC3 cells cultured to approximately 70% of the density, then removed serum and cultured for 16 hours, with addition of drugs: 1 unit/mL Cdc42 agonist (cytoskeleton) 5 uM, 50 uM ZCL278 to treat cells for 5, 10, and 15 minutes respectively. Cell lysis buffer (Formulation: 50 mM Tris buffer solution pH 7.5, 10 mM magnesium chloride, 0.5 M sodium chloride, 1% Triton X-100 and protease inhibitors) cell lysis and centrifuged at 14000 rpm and 4° C. to obtain extracted protein samples. Western blot analysis was conducted using antibody: phosphorylated Rac1/Cdc42 (Milipore Company), phosphorylated WASP (Assay Biotech Company), all at 1:1000, and GAPDH antibody (Calbiochem Company) on PVDF membrane for chemiluminescence development.
# [4] = tested on: growth cone filopodia of cortical neurons; assay: Time-lapse video microscopy of growth cone dynamics in cortical neurons; format: cell-based, mouse; settings: ZCL278 treatment, cortical neuron growth cone
# Method: (§5) Time-lapsed video light microscopy was used to observe the effects of ZCL278 on neuronal growth cone dynamics, Hamamatsu Orca digital camera was used to record the cell images under 63× magnification for 10 minute. 300 ms exposure for imaging was used to minimize phototoxicity. The images were analyzed using MetaMorph software and statistical analysis was performed. At 5 days cultured in vitro, cortical neurons extended neurites with multiple branches (FIG. 6A, Control). 50 μM of ZCL278 was applied for 5 and 10 minutes, while DMSO-treated neurons were maintained as negative controls.
# Cdc42 is also widely known to control filopodia and microspikes at the leading edge of migrating growth cones. […] Thus, these studies further support ZCL278 as an effective small-molecule inhibitor of Cdc42-mediated neuronal branching and growth cone motility.
# [5] = tested on: primary neonatal cortical neurons; assay: Neuronal branching in primary neonatal cortical neurons; format: cell-based, mouse; settings: 50 μM for 5 and 10 minutes, 5 days in vitro
# Method: Primary neonatal day-one mouse brain was incubated with 0.25% trypsin HBSS for 15 minutes at 37° C., gently separated neurons were plated on poly-L-lysine coated coverslips, incubated with DMEM containing 10% bovine serum for 16 hours, then the media was changed to Neurobasal (Invitrogen). At 5 days in vitro, the cells were treated with either DMSO or 50 uM ZCL278 for 5 or 10 minutes, then fixed in 4% paraformaldehyde for 15 minutes. Fluorescein-phalloidin was applied to stain for F-actin structure and the neuronal morphology was observed under the Zeiss light microscope.
# as §5
# phospho-Rac/Cdc42 = assay: Western blot of phospho-Rac/Cdc42 (Serine 71) in PC-3 cells; format: cell-based, human; settings: 50 μM for 5, 10 and 15 minutes
# Method: First, Cdc42 activation was investigated in human metastatic prostate cancer PC-3 cells that were treated with the Cdc42 activator or 50 μM ZCL278 for 5, 10, and 15 minutes. Serine 71 phosphorylation is known to negatively regulate Rac/Cdc42 activity, thus an increase: in phospho-Rac/Cdc42 expression is indicative of a decrease in active (GTP-bound) Rac/Cdc42.
# as §4
# Cdc42 [6] = biological target: T2, Cdc42 (Homo sapiens, UniProt P60953); assay: Fluorescence titration of purified Cdc42 with ZCL278 (tryptophan fluorescence); format: binding; settings: emission monitored at 350 nm
# T2 sequence (P60953 whole entry, species assumed): as the sequence (P60766 whole entry) above
# Method: The binding affinity of ZCL278 and Cdc42 was assessed by using two independent biophysical methods. First, fluorescence titration of purified Cdc42 ZCL278 was carded out by monitoring the change of fluorescence intensity of a tryptophan residue on CAc42 upon ZCL278 binding. As ZCL278 has a weak absorption peak at 310 nm, to avoid any experimental error that might result from potential fluorescence quenching by ZCL278, the fluorescence emission of Cdc42 was monitored at 350 nm, at which ZCL278 has a negligible absorption. […] These species in solution may have modifying effects on membrane transport and binding to Cdc42.
# Cdc42 [7] = biological target: T2, Cdc42; assay: Surface plasmon resonance, purified Cdc42 immobilized on CM5 chips; format: binding; settings: SPR
# Solubility determination = format: physicochemical
Structure (SMILES),cellular migration (PC-3 cells [1]; 10 uM),effect on GTP-Cdc42 content (GTP-bound (active) Cdc42; 10 μM NSC23766 1 hour),perinuclear distribution and immunoreactivity of active Cdc42 (active Cdc42),pixel intensity of phospho-RhoA (phosphorylated RhoA),GM130 immunoreactivity and distribution (GM130),cell viability versus non-treated cells (PC-3 cells [2]),inhibition of microspike formation [3],wound closure (PC-3 cells [1]; 5 μM),wound closure (PC-3 cells [1]; 50 μM),phospho-WASP expression (phospho-WASP),decrease in GTP-Cdc42 content compared with cells treated solely with the activator (GTP-bound (active) Cdc42; 50 μM ZCL278 1 hour),time to retraction of filopodia [4],neuronal branch number [5],Rac/Cdc42 phosphorylation (Serine 71) (phospho-Rac/Cdc42),Kd (Cdc42 [6]),Kd (Cdc42 [7]),solubility (Solubility determination)
"CCN(CC)CCCC(C)Nc1nc(C)cc(Nc2ccc3nc(C)cc(N)c3c2)n1 (stereo not drawn) [NSC23766, reference compound]",significantly reduced,does not reduce GTP-Cdc42 content,did not have similar effects,did not alter the phosphorylation RhoA,did not significantly after GM130 expression or distribution,no difference in viability,–,–,–,–,–,–,–,–,–,–,–
"Cc1cc(C)nc(NS(=O)(=O)c2ccc(NC(=S)NC(=O)COc3ccc(Br)cc3Cl)cc2)n1 [ZCL278, 4-(3-(2-(4-Bromo-2-chlorophenoxy)acetyl)thioureido)-N-(4,6-dimethylpyrimidin-2yl)benzenesulfonamide]",–,–,obviously reduced this distribution,did not alter the phosphorylation RhoA,clear reduction of GM130 immunoreactivity,no difference in viability,obvious inhibition of microspike formation,30%,8%,does not suppress phospho-WASP activity,~80%,≤ 4 min,significantly reduced,time-dependent increase,6.4 µM,11.4 µM,181 µM
